Like-named read-outs stand apart in the source and are kept apart here.
Legend:
[1] = In vitro stability in liver microsomes, beagle dogs; assay type: in vitro ADME; details: dog, 0.5 mg/mL
Experimental: Metabolic stabilities of the assay compound in liver microsomes of CD-1 mice, SD rats, beagle dogs, cynomolgus monkeys, and human were assayed, respectively.
Two 96-well incubation plates were prepared and named T60 incubation plate and NCF60 incubation plate, respectively. 445 μL of microsomal working solutions (liver microsomal protein concentration of 0.56 mg/mL) were added to the T60 incubation plate and the NCF60 incubation plate, respectively, and then the above incubation plates were pre-incubated in a 37° C. water bath for about 10 minutes.
After the pre-incubation, 5 μL of working solutions of the assay sample or the control compound were added to the T60 incubation plate and the NCF60 incubation plate, respectively, and the mixture was mixed well. 50 μL of potassium phosphate buffer was added to each well of the NCF60 incubation plate to initiate the reaction. 180 μL of stop solution (200 ng/mL tolbutamide and 200 ng/mL labetalol in acetonitrile) and 6 uL of NADPH regeneration system working solution were added to the T0 stop plate, and 54 μL of sample was transferred from T60 incubation plate to T0 stop plate (generation of T0 sample). The reaction was initiated by adding 44 μL of NADPH regeneration system working solution to each well of the T60 incubation plate. Only 54 μL of microsome working solution, 6 uL of NADPH regeneration system working solution and 180 μL of stop solution were added to the Blank plate. Therefore, in samples of the assay compound or the control compound, the final reaction concentration of compound, testosterone, diclofenac and propafenone was 1 μM, the concentration of liver microsomes was 0.5 mg/mL, and the final reaction concentrations of DMSO and acetonitrile in the reaction system were 0.01% (v/v) and 0.99% (v/v), respectively. […] All samples were injected and analyzed by liquid chromatography-tandem mass spectrometry.

[2] = Stability in plasma, CD-1 mice; assay type: in vitro ADME; details: CD-1 mice plasma, 2 μM, 37° C.
Experimental: Stabilities of the assay compound in plasma of CD-1 mice and human were assayed, respectively. Cryopreserved plasma was thawed for 10 to 20 min. After the plasma was completely thawed, it was placed in a centrifuge and centrifuged at 3220×g for 5 min to remove any suspended matter and sediment in the plasma. 96-well incubation plates were prepared and named T0, T10, T30, T60, T120, respectively. 98 μL of blank plasmas of mouse, rat, canine, monkey and human were added to the corresponding incubation plates, then 2 μL of working solutions of the compound or the control compound were added to the corresponding plates in duplicate. All samples were incubated in a 37° C. water bath. The final incubation concentrations of the compound and the control compounds bisacodyl, enalapril maleate, procaine and probanthine were 2 μM, and the final organic phase content was 2.0%. At the end of incubation for each time point, the corresponding incubation plate was removed and 400 μL of a solution of 200 ng/mL of tolbutamide and labetalol in acetonitrile was added to each corresponding sample well to precipitate the protein. All sample plates were sealed and shaken well, and then centrifuged at 3220×g for 20 minutes. 50 μL of supernatant was taken out and diluted in 100 μL of ultrapure water. All samples were mixed well and then analyzed by LC/MS/MS.

[3] = Stability in whole blood, CD-1 mice; assay type: in vitro ADME; details: CD-1 mice whole blood, 5 μM, 37° C.
Experimental: (§1) Stabilities of the assay compound in whole blood of CD-1 mice, SD rats, beagle dogs and cynomolgus monkeys were assayed, respectively. On the day of the assay or the day before the assay, fresh whole blood from CD-1 mice, SD rats, beagle dogs, and cynomolgus monkeys was collected using anticoagulant EDTA-K2. Prior to the start of the assay, the whole blood was mixed with PBS in 1:1 (v: v) and the mixture was preheated in a 37° C. water bath for 10 to 20 minutes. 96-well incubation plates were prepared and named T0, T30, T60, […], respectively. In the corresponding incubation plates, including T0, T30, T60 and […] incubation plates, 2 μL of working solutions of the compound or the control compound were mixed with 98 μL of blank whole blood of mice, rats, canines, monkeys and human in duplicate. All samples were incubated in a 37° C. water bath. The final incubation concentration of the compound was 5 μM and the final incubation concentration of the control compound was 2 μM. At the end of incubation for each time point, the corresponding incubation plate was removed and 100 μL of ultrapure water was immediately added to the corresponding sample wells, and mixed well. 800 μL of a solution of 200 ng/mL tolbutamide and labetalol in acetonitrile was added to precipitate the protein. […] 150 μL of supernatant was taken out and analyzed by LC/MS/MS.

[4] = Stability in whole blood, beagle dogs; assay type: in vitro ADME; details: 5 μM, 37° C.
Experimental: as §1

[5] = Pharmacokinetics by oral administration and intravenous injection in SD rats; assay type: in vivo; details: for Area under the plasma concentration-time curve, AUCu: AUC0-last × PPB(Unbound %); for Vd: SD, iv, 2 mg/kg; for AUC(0-t): read-out: Area under the plasma concentration-time curve, AUC0-last
Experimental: • 1) Assay on the pharmacokinetics of the assay compound by oral administration and intravenous injection in SD rats
The assay compound was mixed with 5% o dimethyl sulfoxide/95% o (10% hydroxypropyl-β-cyclodextrin) solution. The mixture was vortexed and sonicated to prepare a 1 mg/mL clear solution, which was filtered through a microporous membrane for later use. Male SD rats aged 7 to 10 weeks were selected, and administered candidate compound solutions intravenously or orally. Whole blood was collected for a certain period of time, and prepared to obtain plasma. Drug concentration was analyzed by LC-MS/MS method, and pharmacokinetic parameters were calculated by Phoenix WinNonlin software (Pharsight, USA).

## C=C(F)C(=O)N1CCN(c2nc(OC[C@@]34CCCN3C[C@H](F)C4)nc3c2CO[C@H](c2c(F)c(N)cc(C)c2C(F)(F)F)C3)C[C@@H]1CC#N [Compound of formula (I)]
[1]
  CLint scaled at 1 μM: < 13.8 mL/min/kg
  half-life at 1 μM: > 2.42 h
[1]; read-out: CLint(hep)
  microsomal CLint at 1 μM: < 9.6 µL/min/mg
[2]
  Detection of assay compound content within 120 min: 94%
[3]
  Detection of assay compound content within 240 min: 117%
[4]
  Detection of assay compound content within 240 min: 102%
[5]; intravenous injection, 2.0 mg/kg
  Area under the plasma concentration-time curve, AUCu: 0.0313 µM·h
[5]; male, rat, plasma, intravenous injection, 2.0 mg/kg, Vdss/PPB(Unbound %), read-out: Apparent volume of distribution, Vdss, u
  Vd: 221 L/kg
[5]; male, rat, plasma, intravenous injection, 2.0 mg/kg, read-out: Apparent volume of distribution, Vdss
  Vd: 10.6 L/kg
[5]; male, rat, plasma, intravenous injection, 2.0 mg/kg
  AUC(0-t): 0.653 µM·h
[5]; male, rat, plasma, intravenous injection, 2.0 mg/kg, read-out: Clearance rate, CL
  clearance: 71.5 mL/min/kg
[5]; male, rat, plasma, intravenous injection, 2.0 mg/kg, read-out: Half-life time, T1/2 (converted)
  half-life: 1.9 h
[5]; male, rat, plasma, oral administration, 9.8 mg/kg
  AUC(0-t): 0.995 µM·h
[5]; male, rat, plasma, oral administration, 9.8 mg/kg, read-out: Bioavailability F (%)
  bioavailability: 30.5%
[5]; male, rat, plasma, oral administration, 9.8 mg/kg, read-out: Peak concentration, Cmax
  Cmax: 220 nM
[5]; male, rat, plasma, oral administration, 9.8 mg/kg, read-out: Time-to-peak, Tmax
  Tmax: 1.5 h
[5]; oral administration, 9.8 mg/kg
  Area under the plasma concentration-time curve, AUCu: 0.0478 µM·h
[5]; oral administration, 9.8 mg/kg, Cmax × PPB(Unbound %)
  Peak concentration, Cmax, u: 10.6 nM
